Converted amounts (≈) assume the structure as drawn.
How the values were obtained:
Type in all cases: functional
Pseudomonas aeruginosa = assay: Antibacterial activity against Pseudomonas aeruginosa ATCC 111 27853
Streptococcus pneumoniae [1] = assay: microbe, parasite or virus in culture; details: ATCC 106 49619
Description: Antibacterial activity against Streptococcus pneumoniae ATCC 106 49619

Staphylococcus aureus [2] = assay: Antibacterial activity against Staphylococcus aureus ATCC 101 29213
Escherichia coli [3] = assay: Antibacterial activity against tetracycline-resistant Escherichia coli 155
Escherichia coli [4] = assay: Antibacterial activity against Escherichia coli ATCC 107 25922
Klebsiella pneumoniae [5] = assay: Antibacterial activity against tetracycline-resistant Klebsiella pneumoniae 153
Klebsiella pneumoniae [6] = assay: Antibacterial activity against Klebsiella pneumoniae ATCC 109 13883
Staphylococcus aureus [7] = assay: microbe, parasite or virus in culture; details: 158
Enterococcus faecalis [8] = assay: Antibacterial activity against Enterococcus faecalis ATCC 103 29212
Enterobacter cloacae = assay: Antibacterial activity against Enterobacter cloacae ATCC 108 13047
Staphylococcus aureus [9] = assay: Antibacterial activity against tetracycline- and methicillin-resistant Staphylococcus aureus 161
Enterococcus faecalis [10] = assay: Antibacterial activity against tetracycline-resistant Enterococcus faecalis 159
Streptococcus pneumoniae [11] = assay: Antibacterial activity against tetracycline-resistant Streptococcus pneumoniae 160
Acinetobacter baumannii = assay: Antibacterial activity against Acinetobacter baumannii ATCC 19606 110

Compound: COC[C@@H]1CCCN1CC(=O)Nc1cc(F)c2c(c1O)C(=O)C1=C(O)[C@]3(O)C(=O)C(C(N)=O)=C(O)[C@@H](N(C)C)[C@@H]3C[C@@H]1C2
- MIC (Pseudomonas aeruginosa): > 32 µg/mL
- MIC (Streptococcus pneumoniae [1]): 0.125 µg/mL (≈ 0.207 µM)
- MIC (Staphylococcus aureus [2]): 1 µg/mL (≈ 1.66 µM)
- MIC (Escherichia coli [3]): 16 µg/mL (≈ 26.6 µM)
- MIC (Escherichia coli [4]): 4 µg/mL (≈ 6.64 µM)
- MIC (Klebsiella pneumoniae [5]): 16 µg/mL (≈ 26.6 µM)
- MIC (Klebsiella pneumoniae [6]): 8 µg/mL (≈ 13.3 µM)
- MIC (Staphylococcus aureus [7]): 1 µg/mL (≈ 1.66 µM)
- MIC (Enterococcus faecalis [8]): 1 µg/mL (≈ 1.66 µM)
- MIC (Enterobacter cloacae): 16 µg/mL (≈ 26.6 µM)
- MIC (Staphylococcus aureus [9]): 2 µg/mL (≈ 3.32 µM)
- MIC (Enterococcus faecalis [10]): 2 µg/mL (≈ 3.32 µM)
- MIC (Streptococcus pneumoniae [11]): 0.125 µg/mL (≈ 0.207 µM)
- MIC (Acinetobacter baumannii): 0.5 µg/mL (≈ 0.83 µM)

Compound: CCNCC(=O)Nc1cc(F)c2c(c1O)C(=O)C1=C(O)[C@]3(O)C(=O)C(C(N)=O)=C(O)[C@@H](N(C)C)[C@@H]3C[C@@H]1C2
- MIC (Pseudomonas aeruginosa): 8 µg/mL (≈ 15 µM)
- MIC (Streptococcus pneumoniae [1]): 0.0156 µg/mL (≈ 0.0293 µM)
- MIC (Staphylococcus aureus [2]): 0.0625 µg/mL (≈ 0.117 µM)
- MIC (Escherichia coli [3]): 16 µg/mL (≈ 30 µM)
- MIC (Escherichia coli [4]): 0.25 µg/mL (≈ 0.469 µM)
- MIC (Klebsiella pneumoniae [5]): 8 µg/mL (≈ 15 µM)
- MIC (Klebsiella pneumoniae [6]): 1 µg/mL (≈ 1.88 µM)
- MIC (Staphylococcus aureus [7]): 1 µg/mL (≈ 1.88 µM)
- MIC (Enterococcus faecalis [8]): 0.0625 µg/mL (≈ 0.117 µM)
- MIC (Enterobacter cloacae): 0.5 µg/mL (≈ 0.939 µM)
- MIC (Staphylococcus aureus [9]): 0.25 µg/mL (≈ 0.469 µM)
- MIC (Enterococcus faecalis [10]): 0.125 µg/mL (≈ 0.235 µM)
- MIC (Streptococcus pneumoniae [11]): 0.0156 µg/mL (≈ 0.0293 µM)
- MIC (Acinetobacter baumannii): 2 µg/mL (≈ 3.76 µM)

Compound: CN(C)[C@@H]1C(O)=C(C(N)=O)C(=O)[C@@]2(O)C(O)=C3C(=O)c4c(O)c(NC(=O)CNC(C)(C)C)cc(F)c4C[C@H]3C[C@@H]12
- MIC (Pseudomonas aeruginosa): 16 µg/mL (≈ 28.5 µM)
- MIC (Streptococcus pneumoniae [1]): 0.0156 µg/mL (≈ 0.0278 µM)
- MIC (Staphylococcus aureus [2]): 0.125 µg/mL (≈ 0.223 µM)
- MIC (Escherichia coli [3]): 2 µg/mL (≈ 3.57 µM)
- MIC (Escherichia coli [4]): 0.25 µg/mL (≈ 0.446 µM)
- MIC (Klebsiella pneumoniae [5]): 2 µg/mL (≈ 3.57 µM)
- MIC (Klebsiella pneumoniae [6]): 1 µg/mL (≈ 1.78 µM)
- MIC (Staphylococcus aureus [7]): 0.0625 µg/mL (≈ 0.111 µM)
- MIC (Enterococcus faecalis [8]): 0.0625 µg/mL (≈ 0.111 µM)
- MIC (Enterobacter cloacae): 1 µg/mL (≈ 1.78 µM)
- MIC (Staphylococcus aureus [9]): 0.25 µg/mL (≈ 0.446 µM)
- MIC (Enterococcus faecalis [10]): 0.125 µg/mL (≈ 0.223 µM)
- MIC (Streptococcus pneumoniae [11]): 0.0156 µg/mL (≈ 0.0278 µM)
- MIC (Acinetobacter baumannii): 0.5 µg/mL (≈ 0.892 µM)

Compound: CN(C)[C@@H]1C(O)=C(C(N)=O)C(=O)[C@@]2(O)C(O)=C3C(=O)c4c(O)c(NC(=O)CN5CC[C@@H](F)C5)cc(F)c4C[C@H]3C[C@@H]12
- MIC (Pseudomonas aeruginosa): > 32 µg/mL
- MIC (Streptococcus pneumoniae [1]): 0.0156 µg/mL (≈ 0.0271 µM)
- MIC (Staphylococcus aureus [2]): 0.25 µg/mL (≈ 0.434 µM)
- MIC (Escherichia coli [3]): 16 µg/mL (≈ 27.8 µM)
- MIC (Escherichia coli [4]): 1 µg/mL (≈ 1.73 µM)
- MIC (Klebsiella pneumoniae [5]): 8 µg/mL (≈ 13.9 µM)
- MIC (Klebsiella pneumoniae [6]): 4 µg/mL (≈ 6.94 µM)
- MIC (Staphylococcus aureus [7]): 0.5 µg/mL (≈ 0.867 µM)
- MIC (Enterococcus faecalis [8]): 0.125 µg/mL (≈ 0.217 µM)
- MIC (Enterobacter cloacae): 8 µg/mL (≈ 13.9 µM)
- MIC (Staphylococcus aureus [9]): 0.5 µg/mL (≈ 0.867 µM)
- MIC (Enterococcus faecalis [10]): 0.25 µg/mL (≈ 0.434 µM)
- MIC (Streptococcus pneumoniae [11]): 0.0156 µg/mL (≈ 0.0271 µM)
- MIC (Acinetobacter baumannii): 0.25 µg/mL (≈ 0.434 µM)

Compound: CN(C)[C@@H]1C(O)=C(C(N)=O)C(=O)[C@@]2(O)C(O)=C3C(=O)c4c(O)c(NC(=O)CNCC(F)(F)F)cc(F)c4C[C@H]3C[C@@H]12
- MIC (Pseudomonas aeruginosa): > 32 µg/mL
- MIC (Streptococcus pneumoniae [1]): 0.5 µg/mL (≈ 0.853 µM)
- MIC (Staphylococcus aureus [2]): 1 µg/mL (≈ 1.71 µM)
- MIC (Escherichia coli [3]): > 32 µg/mL
- MIC (Escherichia coli [4]): > 16 µg/mL
- MIC (Klebsiella pneumoniae [5]): > 32 µg/mL
- MIC (Klebsiella pneumoniae [6]): 32 µg/mL (≈ 54.6 µM)
- MIC (Staphylococcus aureus [7]): 4 µg/mL (≈ 6.82 µM)
- MIC (Enterococcus faecalis [8]): 2 µg/mL (≈ 3.41 µM)
- MIC (Enterobacter cloacae): > 32 µg/mL
- MIC (Staphylococcus aureus [9]): 2 µg/mL (≈ 3.41 µM)
- MIC (Enterococcus faecalis [10]): 4 µg/mL (≈ 6.82 µM)
- MIC (Streptococcus pneumoniae [11]): 1 µg/mL (≈ 1.71 µM)
- MIC (Acinetobacter baumannii): > 2 µg/mL

Compound: CN(C)[C@@H]1C(O)=C(C(N)=O)C(=O)[C@@]2(O)C(O)=C3C(=O)c4c(O)c(NC(=O)CNc5cccnc5)cc(F)c4C[C@H]3C[C@@H]12
- MIC (Pseudomonas aeruginosa): > 32 µg/mL
- MIC (Streptococcus pneumoniae [1]): 0.25 µg/mL (≈ 0.43 µM)
- MIC (Staphylococcus aureus [2]): 4 µg/mL (≈ 6.88 µM)
- MIC (Escherichia coli [3]): > 32 µg/mL
- MIC (Escherichia coli [4]): 16 µg/mL (≈ 27.5 µM)
- MIC (Klebsiella pneumoniae [5]): > 32 µg/mL
- MIC (Klebsiella pneumoniae [6]): 32 µg/mL (≈ 55 µM)
- MIC (Staphylococcus aureus [7]): > 32 µg/mL
- MIC (Enterococcus faecalis [8]): 8 µg/mL (≈ 13.8 µM)
- MIC (Enterobacter cloacae): > 32 µg/mL
- MIC (Staphylococcus aureus [9]): > 32 µg/mL
- MIC (Enterococcus faecalis [10]): > 32 µg/mL
- MIC (Streptococcus pneumoniae [11]): 2 µg/mL (≈ 3.44 µM)
- MIC (Acinetobacter baumannii): > 8 µg/mL

Compound: CN(C)[C@@H]1C(O)=C(C(N)=O)C(=O)[C@@]2(O)C(O)=C3C(=O)c4c(O)c(NC(=O)CN5CCC5)cc(F)c4C[C@H]3C[C@@H]12
- MIC (Pseudomonas aeruginosa): 8 µg/mL (≈ 14.7 µM)
- MIC (Streptococcus pneumoniae [1]): 0.0156 µg/mL (≈ 0.0286 µM)
- MIC (Staphylococcus aureus [2]): 0.125 µg/mL (≈ 0.23 µM)
- MIC (Escherichia coli [3]): 8 µg/mL (≈ 14.7 µM)
- MIC (Escherichia coli [4]): 0.25 µg/mL (≈ 0.459 µM)
- MIC (Klebsiella pneumoniae [5]): 4 µg/mL (≈ 7.35 µM)
- MIC (Klebsiella pneumoniae [6]): 1 µg/mL (≈ 1.84 µM)
- MIC (Staphylococcus aureus [7]): 0.5 µg/mL (≈ 0.918 µM)
- MIC (Enterococcus faecalis [8]): 0.0625 µg/mL (≈ 0.115 µM)
- MIC (Enterobacter cloacae): 1 µg/mL (≈ 1.84 µM)
- MIC (Staphylococcus aureus [9]): 0.25 µg/mL (≈ 0.459 µM)
- MIC (Enterococcus faecalis [10]): 0.125 µg/mL (≈ 0.23 µM)
- MIC (Streptococcus pneumoniae [11]): 0.0156 µg/mL (≈ 0.0286 µM)
- MIC (Acinetobacter baumannii): 2 µg/mL (≈ 3.67 µM)

Compound: CN(C)[C@@H]1C(O)=C(C(N)=O)C(=O)[C@@]2(O)C(O)=C3C(=O)c4c(O)c(NC(=O)CN5CC[C@H](F)C5)cc(F)c4C[C@H]3C[C@@H]12
- MIC (Pseudomonas aeruginosa): > 32 µg/mL
- MIC (Streptococcus pneumoniae [1]): 0.0156 µg/mL (≈ 0.0271 µM)
- MIC (Staphylococcus aureus [2]): 0.25 µg/mL (≈ 0.434 µM)
- MIC (Escherichia coli [3]): 32 µg/mL (≈ 55.5 µM)
- MIC (Escherichia coli [4]): 2 µg/mL (≈ 3.47 µM)
- MIC (Klebsiella pneumoniae [5]): 32 µg/mL (≈ 55.5 µM)
- MIC (Klebsiella pneumoniae [6]): 4 µg/mL (≈ 6.94 µM)
- MIC (Staphylococcus aureus [7]): 1 µg/mL (≈ 1.73 µM)
- MIC (Enterococcus faecalis [8]): 0.25 µg/mL (≈ 0.434 µM)
- MIC (Enterobacter cloacae): 4 µg/mL (≈ 6.94 µM)
- MIC (Staphylococcus aureus [9]): 0.5 µg/mL (≈ 0.867 µM)
- MIC (Enterococcus faecalis [10]): 0.25 µg/mL (≈ 0.434 µM)
- MIC (Streptococcus pneumoniae [11]): 0.0156 µg/mL (≈ 0.0271 µM)
- MIC (Acinetobacter baumannii): 0.125 µg/mL (≈ 0.217 µM)

Compound: CN(C)[C@@H]1C(O)=C(C(N)=O)C(=O)[C@@]2(O)C(O)=C3C(=O)c4c(O)c(NC(=O)CNc5ccccc5)cc(F)c4C[C@H]3C[C@@H]12
- MIC (Pseudomonas aeruginosa): > 32 µg/mL
- MIC (Streptococcus pneumoniae [1]): 2 µg/mL (≈ 3.44 µM)
- MIC (Staphylococcus aureus [2]): 2 µg/mL (≈ 3.44 µM)
- MIC (Escherichia coli [3]): > 32 µg/mL
- MIC (Escherichia coli [4]): > 32 µg/mL
- MIC (Klebsiella pneumoniae [5]): > 32 µg/mL
- MIC (Klebsiella pneumoniae [6]): > 32 µg/mL
- MIC (Staphylococcus aureus [7]): 2 µg/mL (≈ 3.44 µM)
- MIC (Enterococcus faecalis [8]): 2 µg/mL (≈ 3.44 µM)
- MIC (Enterobacter cloacae): > 32 µg/mL
- MIC (Staphylococcus aureus [9]): 4 µg/mL (≈ 6.89 µM)
- MIC (Enterococcus faecalis [10]): 2 µg/mL (≈ 3.44 µM)
- MIC (Streptococcus pneumoniae [11]): > 4 µg/mL
- MIC (Acinetobacter baumannii): > 8 µg/mL

Reference: ChEMBL document CHEMBL1949621, “Fluorocyclines. 1. 7-fluoro-9-pyrrolidinoacetamido-6-demethyl-6-deoxytetracycline: a potent, broad spectrum antibacterial agent” (J Med Chem, 2012)
